Data on eight compounds can be found in patent US20230159587A1, “PHARMACEUTICAL COMPOSITION FOR PREVENTING OR TREATING CANCER” (L-BASE CO., LTD., priority 2021, published 2023).

In general, half-life refers to how long it takes for the measured level to halve. Read a high half-life as slow decline.

Residues, ends and D or L forms follow the SMILES beside them. No end group written: not given here. *: point of attachment. Benzoyl(3-Ph) = O=C(c1cccc(-c2ccccc2)c1)*; Benzoyl(4-Ph) = O=C(c1ccc(-c2ccccc2)cc1)*; Benzoyl(2-Ph) = O=C(c1ccccc1-c1ccccc1)*; Benzoyl(4-OMe) = COc1ccc(C(=O)*)cc1; 2Naphthoyl = O=C(c1ccc2ccccc2c1)*; Bz = O=C(c1ccccc1)*

The subject of series [1] is CT26 cells induced to express CAGE gene. Put plainly: Tumor growth suppression, mice inoculated with CT26 cells induced to express CAGE gene. Format: in vivo. The settings on record: CT26 expressing CAGE, 10 mpk tail vein, 7 times at 2-day intervals; for tumor growth suppression compared to the AQTGTGKT administration group: day 14; for tumor volume on day 14 (average): day after 7th administration. The procedure:
(§1) 200 μl of CT26 cells, which were induced to express CAGE gene, were inoculated once by subcutaneous injection into the flanks of mice at a concentration of 1×10^6 cells/mouse. After it was confirmed that the volume of a tumor mass formed after the inoculation reached 70 mm^3, random group separation was performed. A test material was injected to the tail vein 7 times at 2-day intervals at a concentration of 10 mpk, and the start date of administration was set as day 1. The tumor volume was calculated twice a week by measuring the width and length and at the same time, the mouse body weight was measured.

Series [2] relates to colorectal cancer cell line HT29. Briefly: Cell proliferation suppression in colorectal cancer cell line HT29. In kind it is cell-based. The settings on record: HT29, 50 μM, 72 hours. As to the method: (§2) After 48 hours, a CellTiter-Glo® (Promega Co., USA) reagent was mixed in the same amount as the cell culture medium and allowed to react in an orbital shaker for 2 minutes. After reaction at room temperature for 10 minutes, the luminescence signal was measured using a luminometer (GloMax®, Promega).
(§3) After 72 hours, 10 μl of a CellTiter-96® (Promega Co., USA) reagent was added to each well and allowed to react at 5% CO2 and 37° C. After 3 hours, absorbance was measured at 490 nm using a spectrophotometer (SPECTROstar^Nano, BMG).

Series [3] has as its system blood cancer cell line Jurkat clone E6-1. Put plainly: MTT assay, proliferation suppression in blood cancer cell line Jurkat clone E6-1. Format: cell-based. The settings on record: Jurkat clone E6-1, 10 μM, 48 hours. The procedure: as §3
As the blood cancer cell line, Jurkat clone E6-1 was used.
Jurkat clone E6-1 was treated with 4-PhPh-[…], Ac-[…], 3-PhPh-[…], 4-MeOPh-[…], 2-PhPh-[…], Ph-[…], and Naphthyl-[…] at a concentration of 10 μM, respectively, and cell proliferation suppression effects were compared after 48 hours.
(Formazan colour is commonly taken as a measure of viable cells.)

Another series is described as follows: in vitro. The settings on record: human.
Series [4] relates to lung cancer cell line H820 tumors. Put plainly: Tumor growth suppression, nude mice inoculated with lung cancer cell line H820. In kind it is in vivo. The settings on record: H820 in nude mice, 10 mpk, tail vein, 5 times at 3-day intervals and 5 times at 2-day intervals. As to the method:
200 μl of H820 cells were inoculated once by subcutaneous injection into the flanks of mice at a concentration of 5×10^6 cells/mouse at 1:1 with Matrigel. After it was confirmed that the volume of a tumor mass formed after the inoculation reached 70 to 130 mm^3, random group separation was performed. […]

For series [5], the system named is breast cancer cell line HCC1937. Briefly: MTT assay, proliferation suppression in breast cancer cell line HCC1937. In kind it is cell-based. The settings on record: HCC1937, 100 μM, 72 hours. As to the method: as §3
HCC1937 was used as the breast cancer cell line.
The HCC1937 cell line was treated with Ac-[…], 3-PhPh-[…], 4-MeOPh-[…], 2-PhPh-[…], Ph-[…], and Naphthyl-[…] at a concentration of 100 μM, respectively, and cell proliferation suppression effects were compared after 72 hours.

Series [6] relates to lung cancer cell line H1299. Briefly: CTG assay, cell viability suppression in lung cancer cell line H1299. Format: cell-based. The settings on record: H1299, 100 μM, 48 hours. The procedure:
as §2

In series [7] the test system is pancreatic cancer cell line CFPAC-1. Briefly: MTT assay, cell viability suppression in pancreatic cancer cell line CFPAC-1. Format: cell-based. The settings on record: CFPAC-1, 10 μM, 72 hours. As to the method: as §3
The nature of series [8]: Stability in human blood (residual amount over time).
Series [9] deals with breast cancer cell line HCC1806 tumors. Briefly: Tumor growth suppression, mice inoculated with breast cancer cell line HCC1806. The settings on record: HCC1806, 10 mpk tail vein, 7 times at 2-day intervals; for tumor volume on day 15 (average): 2 days after last administration; for tumor growth suppression compared to the tumor volume of the AQTGTGKT group: day 15. Format: in vivo, immunodeficient mice. As to the method:
as §1, with “a breast cancer cell line, HCC1806” for “CT26”, “cells,” for “cells, which were induced to express CAGE gene,”, “5×10^6” for “1×10^6”, “70 to 130” for “70”

Series [10] deals with lung cancer cell line H1975. Put plainly: CTG assay, cell viability suppression in lung cancer cell line H1975. In kind it is cell-based. The settings on record: H1975, 10 μM, 72 hours. As to the method: as §2
For series [11], the system named is H1975 lung cancer cells tumors. Briefly: Tumor growth suppression, nude mice inoculated with H1975 lung cancer cells. Format: in vivo. The settings on record: H1975 in nude mice, 10 mpk for 14 days. As to the method:
150 μl of H1975 cells were inoculated once by subcutaneous injection into the flanks of mice at a concentration of 4×10^6 cells/mouse. After it was confirmed that the volume of a tumor mass formed after the inoculation reached 70 to 130 mm^3, random group separation was performed. A test material was injected to the tail vein 5 times at 3-day intervals and 5 times at 2-day intervals.

Series [12] relates to lung cancer cell line H820. Put plainly: Cell viability suppression in lung cancer (papillary adenocarcinoma) cell line H820. Format: cell-based. The settings on record: H820, 10 μM, 72 hours. As to the method:
as §2, §3

Series [13] has as its system breast cancer cell line MDA-MB-231. Briefly: CTG assay, activity of breast cancer cells MDA-MB-231 (amount of ATP). Format: cell-based. The settings on record: MDA-MB-231, 100 μM, 48 hours. The procedure:
as §2

As for `C[C@H](NC(=O)c1ccc2ccccc2c1)C(=O)N[C@@H](CCC(N)=O)C(=O)N[C@H](C(=O)NCC(=O)N[C@H](C(=O)NCC(=O)N[C@@H](CCCCN)C(=O)N[C@H](C(=O)O)[C@@H](C)O)[C@@H](C)O)[C@@H](C)O` (2Naphthoyl-AQTGTGKT-OH), the “tumor growth suppression compared to the AQTGTGKT administration group” value in series [1] was “about 62.04%”. The “tumor volume on day 14 (average)” value in series [1] was found to be 880.35 mm^3. In addition, in series [2], the “cell proliferation suppression effect compared to the control (AQTGTGKT)” value was 58%. For the same compound, the “suppression of proliferation of cells compared to the control (AQTGTGKT)” value in series [3] was around 10.4%; in [5] it was around 9.5%. In the series “in vitro”, this compound gave a half-life at 10 μM of 47 to 105 min. The “tumor growth suppression effect compared to the control (AQTGTGKT)” value in series [4] is 26%. The “cell viability suppression effect compared to the control (AQTGTGKT)” value is listed as 14% in series [6] and 3% in [7].
`C[C@H](NC(=O)c1ccccc1)C(=O)N[C@@H](CCC(N)=O)C(=O)N[C@H](C(=O)NCC(=O)N[C@H](C(=O)NCC(=O)N[C@@H](CCCCN)C(=O)N[C@H](C(=O)O)[C@@H](C)O)[C@@H](C)O)[C@@H](C)O` (Bz-AQTGTGKT-OH) returned a half-life at 10 μM in [8] of 47 to 105 min. In addition, in [2], the “cell proliferation suppression effect compared to the control (AQTGTGKT)” value amounted to 40%. The “suppression of proliferation of cells compared to the control (AQTGTGKT)” value is reported as around 10.2% in [3] and around 13.6% in series [5]. Moreover, the “tumor growth suppression effect compared to the control (AQTGTGKT)” value in series [4] was 20%. Besides, the “tumor volume on day 15 (average)” value in [9] is recorded as 1133.80 mm^3. For the same compound, in [9], the “tumor growth suppression compared to the tumor volume of the AQTGTGKT group” value is recorded as around 39.82%. Moreover, the “cell viability suppression effect compared to the control (AQTGTGKT)” value in series [6] was found to be 18%; in series [7] it was 3%.
Turning to `C[C@H](NC(=O)c1ccccc1-c1ccccc1)C(=O)N[C@@H](CCC(N)=O)C(=O)N[C@H](C(=O)NCC(=O)N[C@H](C(=O)NCC(=O)N[C@@H](CCCCN)C(=O)N[C@H](C(=O)O)[C@@H](C)O)[C@@H](C)O)[C@@H](C)O` ({Benzoyl(2-Ph)}-AQTGTGKT-OH), the “cell proliferation suppression effect compared to the control (AQTGTGKT)” value in [2] amounted to 7%. For the same compound, the “cell viability suppression effect compared to the control (AQTGTGKT)” value in [10] came to 3%; in series [6] it was 20%. Also, the “suppression of proliferation of cells compared to the control (AQTGTGKT)” value is around 6.7% in series [3] and around 15.9% in series [5]. For the same compound, in the series “in vitro”, the half-life at 10 μM fell in the range of 47 to 105 min. Also, the “tumor growth suppression effect compared to the control (AQTGTGKT)” value in series [4] turned out to be 27%.
On to `C[C@H](NC(=O)c1cccc(-c2ccccc2)c1)C(=O)N[C@@H](CCC(N)=O)C(=O)N[C@H](C(=O)NCC(=O)N[C@H](C(=O)NCC(=O)N[C@@H](CCCCN)C(=O)N[C@H](C(=O)O)[C@@H](C)O)[C@@H](C)O)[C@@H](C)O` ({Benzoyl(3-Ph)}-AQTGTGKT-OH), for which the “tumor growth reduction compared to the control (AQTGTGKT)” value in [11] is given as “about 16.5%”. The “tumor growth suppression compared to the AQTGTGKT administration group” value in [1] is on record as “about 65.79%”. In series [1], the “tumor volume on day 14 (average)” value worked out at 880.35 mm^3. In addition, the “cell viability suppression effect compared to the control (AQTGTGKT)” value in series [12] was “about 12%”; in [10], 33%; in series [6], 15%; in series [7], 2%. Also, the “cell proliferation suppression effect compared to the control (AQTGTGKT)” value in [2] came out at 59%. Also, the “suppression of proliferation of cells compared to the control (AQTGTGKT)” value in series [3] is listed as around 6.4%; in series [5], around 17.1%. This compound yielded a half-life at 10 μM in “in vitro” of 47 to 105 min. The “tumor growth suppression effect compared to the control (AQTGTGKT)” value in series [4] is on record as “about 16.5%”. Besides, the “tumor volume on day 15 (average)” value in [9] was found to be 944.70 mm^3. The “tumor growth suppression compared to the tumor volume of the AQTGTGKT group” value in [9] is on record as “about 49.86%”.
Regarding `COc1ccc(C(=O)N[C@@H](C)C(=O)N[C@@H](CCC(N)=O)C(=O)N[C@H](C(=O)NCC(=O)N[C@H](C(=O)NCC(=O)N[C@@H](CCCCN)C(=O)N[C@H](C(=O)O)[C@@H](C)O)[C@@H](C)O)[C@@H](C)O)cc1` ({Benzoyl(4-OMe)}-AQTGTGKT-OH), the “cell viability suppression effect compared to the control (AQTGTGKT)” value in [12] is on record as 10%; in [10], 4%; in [6] it was 12%; in series [7], 6%. Also, in series [2], the “cell proliferation suppression effect compared to the control (AQTGTGKT)” value is recorded as 48%. Moreover, the “suppression of proliferation of cells compared to the control (AQTGTGKT)” value in series [3] is reported as around 4%; in [5], around 14.3%. Further, in “in vitro”, the half-life at 10 μM fell in the range of 47 to 105 min. Also, the “tumor volume on day 15 (average)” value in series [9] amounted to 812.69 mm^3. In addition, the “tumor growth suppression compared to the tumor volume of the AQTGTGKT group” value in series [9] was around 56.86%.
Take `C[C@H](NC(=O)c1ccc(-c2ccccc2)cc1)C(=O)N[C@@H](CCC(N)=O)C(=O)N[C@H](C(=O)NCC(=O)N[C@H](C(=O)NCC(=O)N[C@@H](CCCCN)C(=O)N[C@H](C(=O)O)[C@@H](C)O)[C@@H](C)O)[C@@H](C)O` ({Benzoyl(4-Ph)}-AQTGTGKT-OH): the “cell proliferation suppression effect compared to the control (AQTGTGKT)” value in series [2] was “about 8%”. Besides, the “suppression of proliferation of cells compared to the control (AQTGTGKT)” value in [3] is “about 4.8%”. In the series “in vitro”, this compound gave a half-life at 10 μM of 47 to 105 min. For the same compound, the “reduction of activity of cells compared to the control (AQTGTGKT)” value in series [13] was “about 30%”. Besides, the “cell viability suppression effect compared to the control (AQTGTGKT)” value in [6] is given as “about 10%”; in [7] it was “about 12%”.
In series [8], “AQTGTGKT [alanine-glutamine-threonine-glycine-threonine-glycine-lysine-threonine, reference compound]” showed a half-life at 10 μM below 1 min. The “tumor volume on day 14 (average)” value in [1] was 2573.07 mm^3. Also, in series [9], the “tumor volume on day 15 (average)” value stood at 1884.17 mm^3.
Ac-AQTGTGKT: the “cell proliferation suppression effect compared to the control (AQTGTGKT)” value in series [2] was determined as 58%. The entries for the “cell viability suppression effect compared to the control (AQTGTGKT)” value in series [10] and in [6] were “about 16%” and 4.2%, respectively. The “suppression of proliferation of cells compared to the control (AQTGTGKT)” value is reported as around 7.9% in series [3] and “about 11.1%” in [5].
